Results taken from the supplement of paper PMC11208160.

Test: recombinant barcode read abundance after kanamycin selection (control-corrected) (log10(CPM+1)); higher = more efficient recombination; sequences stand for … in AGTGCAGAGAAAATCGGCCAGTTTTCTCTGCCTGCAGTCCGCATGCCGT…AGATTTATGCAGCGGACTGCCTTTCTCCCAAAGTGATAAACCGGACAGTATCATGGACCGGTTTTCCCGGTAATCCGTATTTGCAAGGTTGGTTTCACT; site = the 11-nt target
How it was run: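 Pooled E. coli screen pairing targets with IS621 bridge RNA target-binding loops. Each oligo (promoter, target, barcode, J23119-driven first 104 bridge RNA bases) was Gibson-cloned into a vector with the remaining 73 bp and T7-inducible recombinase, then co-electroporated with a donor plasmid. Two replicates each were plated on chloramphenicol/ampicillin LB agar (control) or chloramphenicol/ampicillin/kanamycin with 0.1 mM IPTG. Recombination efficiency is recombinant-junction barcode counts as CPM, averaged, control-corrected, reported as log10(CPM+1).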
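Note: IS621 recombinase and bridge RNA in Escherichia coli cells.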

Sequence	recombinant barcode read abundance (log10)
GATCGAGCTTGGGTTCTAACCTGTTGCGA (site GATGGAGCTCC)	0.428
GATGGCCCTTGGGTTCTAACCTGTTGCTT (site GACGGACCTAA)	0.101
GATGGCCCTTGGGTTCTAACCTGTTGCTT (site GATGGCCCTAA)	0.528
GATGTAACTTGGGTTCTAACCTGTTGCCT (site GAAGTAACTAG)	0.191
GATGTAACTTGGGTTCTAACCTGTTGCCT (site GACGTAACTAG)	0.101
GATGTAACTTGGGTTCTAACCTGTTGCCT (site GAGGTAACTAG)	0.0797
GATGTAACTTGGGTTCTAACCTGTTGCCT (site GATGTAACTAG)	0.956
GATTCTACTTGGGTTCTAACCTGTTGCGT (site CATGCTACTAC)	0.0209
GATTCTACTTGGGTTCTAACCTGTTGCGT (site GATTCTACTAC)	0.0518
GATTCTCCTTGGGTTCTAACCTGTTGCGT (site GATTCTCCTAA)	0.0946
GATTCTCCTTGGGTTCTAACCTGTTGCGT (site GATTCTCCTAC)	0.541
GATTCTCCTTGGGTTCTAACCTGTTGCGT (site GATTCTCCTAG)	0.141
GATTCTCCTTGGGTTCTAACCTGTTGCGT (site GATTCTCCTAT)	0.118
GATTCTCCTTGGGTTCTAACCTGTTGCTT (site GATTCTCCTAA)	0.0943
GATTCTCCTTGGGTTCTAACCTGTTGCTT (site GATTCTCCTAC)	0.0499
GATTCTCCTTGGGTTCTAACCTGTTGCTT (site GATTCTCCTAG)	0.0621
GATTCTCCTTGGGTTCTAACCTGTTGCTT (site GATTCTCCTAT)	0.194
GCAAATCCTTGGGTTCTAACCTGTTGCCT (site GCAAATCCTAG)	0.873
GCAAATCCTTGGGTTCTAACCTGTTGCCT (site GCACATCCTAC)	0.108
GCAACCTCTTGGGTTCTAACCTGTTGCTA (site CGCTGACCTAG)	0.049
GCAACCTCTTGGGTTCTAACCTGTTGCTA (site GCAACCTCTTA)	1.92
GCAAGTACTTGGGTTCTAACCTGTTGCAG (site AGGTTAGCTTA)	0.106
GCAAGTACTTGGGTTCTAACCTGTTGCAG (site GCAAGTACTCT)	1.95
GCACAGACTTGGGTTCTAACCTGTTGCCT (site GCAAAGCCTAG)	0.207
GCACAGACTTGGGTTCTAACCTGTTGCCT (site GCACAGACTAG)	2.09
GCACAGTCTTGGGTTCTAACCTGTTGCTT (site CCATAGTCTAA)	0.0514

Sequence	recombinant barcode read abundance (log10)
GCACAGTCTTGGGTTCTAACCTGTTGCTT (site GCACAGTCTAA)	1.93
GCACGAACTTGGGTTCTAACCTGTTGCCT (site GCACGAACTAG)	1
GCACGAACTTGGGTTCTAACCTGTTGCCT (site GCCCGAACTAG)	0.133
GCACGAACTTGGGTTCTAACCTGTTGCCT (site GCGCGAACTAG)	0.0581
GCACGAACTTGGGTTCTAACCTGTTGCCT (site GCTCGAACTAG)	0.0171
GCACTACCTTGGGTTCTAACCTGTTGCCT (site GCACAACCTAG)	0.0611
GCACTACCTTGGGTTCTAACCTGTTGCCT (site GCACCACCTAG)	0.534
GCACTACCTTGGGTTCTAACCTGTTGCCT (site GCACGACCTAG)	0.166
GCACTACCTTGGGTTCTAACCTGTTGCCT (site GCACTACCTAG)	1.37
GCACTGCCTTGGGTTCTAACCTGTTGCCT (site GCACTGCCTAG)	1.31
GCACTGCCTTGGGTTCTAACCTGTTGCCT (site GCCCTGCCTAG)	0.233
GCAGCGACTTGGGTTCTAACCTGTTGCCT (site GCAGCGACTAG)	1.78
GCAGCGACTTGGGTTCTAACCTGTTGCCT (site GCCGCGACTAG)	0.148
GCAGCGACTTGGGTTCTAACCTGTTGCCT (site GCGGCGACTAG)	0.277
GCAGCGACTTGGGTTCTAACCTGTTGCCT (site GCTGCGACTAG)	0.194
GCAGGGTCTTGGGTTCTAACCTGTTGCTT (site GCAGGGTCTAA)	2.4
GCAGGGTCTTGGGTTCTAACCTGTTGCTT (site GCCGGGTCTAA)	0.658
GCAGGGTCTTGGGTTCTAACCTGTTGCTT (site GCGGGGTCTAA)	0.646
GCAGGGTCTTGGGTTCTAACCTGTTGCTT (site GCTGGGTCTAA)	0.355
GCAGGTCCTTGGGTTCTAACCTGTTGCCT (site GCAGGTCCTAG)	0.788
GCAGGTCCTTGGGTTCTAACCTGTTGCCT (site GCCGGTCCTAG)	0.512
GCAGGTCCTTGGGTTCTAACCTGTTGCCT (site GCGGGTCCTAG)	0.744
GCAGGTCCTTGGGTTCTAACCTGTTGCCT (site GCTGGTCCTAG)	0.397
GCAGTAGCTTGGGTTCTAACCTGTTGCCA (site CCGGTAGCTTG)	0.188
GCAGTAGCTTGGGTTCTAACCTGTTGCCA (site GCAGTAGCTTG)	0.382
GCATATACTTGGGTTCTAACCTGTTGCGT (site AGTCCCGCTTG)	0

Sequence	recombinant barcode read abundance (log10)
GCATATACTTGGGTTCTAACCTGTTGCGT (site GCATATACTAC)	2.15
GCATCGGCTTGGGTTCTAACCTGTTGCCT (site GCATCGGCTAG)	1.22
GCATCGGCTTGGGTTCTAACCTGTTGCCT (site GCCTCGGCTAG)	0.0153
GCATCGGCTTGGGTTCTAACCTGTTGCCT (site GCGTCGGCTAG)	0.0974
GCATCGGCTTGGGTTCTAACCTGTTGCCT (site GCTTCGGCTAG)	0.0102
GCATGACCTTGGGTTCTAACCTGTTGCAG (site CACAATACTAG)	0.343
GCATGACCTTGGGTTCTAACCTGTTGCAG (site GCATGACCTCT)	1.23
GCATGGACTTGGGTTCTAACCTGTTGCAG (site GCAAGGACTCT)	0.878
GCATGGACTTGGGTTCTAACCTGTTGCAG (site GCACGGACTCT)	1.92
GCATGGACTTGGGTTCTAACCTGTTGCAG (site GCAGGGACTCT)	0.241
GCATGGACTTGGGTTCTAACCTGTTGCAG (site GCATGGACTCT)	2.24
GCCAACCCTTGGGTTCTAACCTGTTGCCT (site GCCAACCCTAA)	0.111
GCCAACCCTTGGGTTCTAACCTGTTGCCT (site GCCAACCCTAC)	0.0192
GCCAACCCTTGGGTTCTAACCTGTTGCCT (site GCCAACCCTAG)	0.326
GCCAACCCTTGGGTTCTAACCTGTTGCCT (site GCCAACCCTAT)	0.0781
GCCAAGCCTTGGGTTCTAACCTGTTGCTG (site GCCAAGCCTCA)	0.257
GCCAAGCCTTGGGTTCTAACCTGTTGCTG (site TCCAACCCTCA)	0.0182
GCCAAGGCTTGGGTTCTAACCTGTTGCCT (site AGTTTCACTTA)	0.0355
GCCAAGGCTTGGGTTCTAACCTGTTGCCT (site GCCAAGGCTAG)	0.407
GCCACGCCTTGGGTTCTAACCTGTTGCAG (site GCCACGCCTCT)	0.115
GCCACGCCTTGGGTTCTAACCTGTTGCAG (site GCCCCGCCTCT)	0.0522
GCCACGCCTTGGGTTCTAACCTGTTGCAG (site GCCGCGCCTCT)	0.053
GCCACGCCTTGGGTTCTAACCTGTTGCAG (site GCCTCGCCTCT)	0.389
GCCATGTCTTGGGTTCTAACCTGTTGCTA (site ACCTTGTCTTA)	0.0829
GCCATGTCTTGGGTTCTAACCTGTTGCTA (site GCCATGTCTTA)	0.145
